Here are results for two compounds from article PMC8617627, “Novel DYRK1A Inhibitor Rescues Learning and Memory Deficits in a Mouse Model of Down Syndrome” (Pharmaceuticals, 2021).

Assay in all cases: Kinase profile (33P ATP filter binding)
Common to all, as to type: biochemical

One assay deals with TTBK2 (Homo sapiens, UniProt Q6IQ55).
Another assay deals with T1, Aurora A (Homo sapiens, UniProt O14965).
T1 sequence (O14965 1-403): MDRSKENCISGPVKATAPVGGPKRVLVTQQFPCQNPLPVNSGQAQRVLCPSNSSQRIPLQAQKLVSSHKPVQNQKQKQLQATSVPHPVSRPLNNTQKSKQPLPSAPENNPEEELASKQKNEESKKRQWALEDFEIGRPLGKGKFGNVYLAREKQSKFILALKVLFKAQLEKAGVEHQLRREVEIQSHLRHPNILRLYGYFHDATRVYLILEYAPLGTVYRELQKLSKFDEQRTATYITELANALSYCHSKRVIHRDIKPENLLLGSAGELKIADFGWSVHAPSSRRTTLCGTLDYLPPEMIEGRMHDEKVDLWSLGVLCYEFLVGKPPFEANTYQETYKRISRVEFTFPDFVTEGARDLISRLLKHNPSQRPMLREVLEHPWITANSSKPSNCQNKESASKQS
The settings on record: for remaining activity at 1 µM / remaining activity at 100 µM: read-out: Remaining protein kinase activity.

The next assay deals with IRR (Homo sapiens, UniProt P14616). The settings on record: read-out: Remaining protein kinase activity.
Sequence of IRR (P14616 27-1297): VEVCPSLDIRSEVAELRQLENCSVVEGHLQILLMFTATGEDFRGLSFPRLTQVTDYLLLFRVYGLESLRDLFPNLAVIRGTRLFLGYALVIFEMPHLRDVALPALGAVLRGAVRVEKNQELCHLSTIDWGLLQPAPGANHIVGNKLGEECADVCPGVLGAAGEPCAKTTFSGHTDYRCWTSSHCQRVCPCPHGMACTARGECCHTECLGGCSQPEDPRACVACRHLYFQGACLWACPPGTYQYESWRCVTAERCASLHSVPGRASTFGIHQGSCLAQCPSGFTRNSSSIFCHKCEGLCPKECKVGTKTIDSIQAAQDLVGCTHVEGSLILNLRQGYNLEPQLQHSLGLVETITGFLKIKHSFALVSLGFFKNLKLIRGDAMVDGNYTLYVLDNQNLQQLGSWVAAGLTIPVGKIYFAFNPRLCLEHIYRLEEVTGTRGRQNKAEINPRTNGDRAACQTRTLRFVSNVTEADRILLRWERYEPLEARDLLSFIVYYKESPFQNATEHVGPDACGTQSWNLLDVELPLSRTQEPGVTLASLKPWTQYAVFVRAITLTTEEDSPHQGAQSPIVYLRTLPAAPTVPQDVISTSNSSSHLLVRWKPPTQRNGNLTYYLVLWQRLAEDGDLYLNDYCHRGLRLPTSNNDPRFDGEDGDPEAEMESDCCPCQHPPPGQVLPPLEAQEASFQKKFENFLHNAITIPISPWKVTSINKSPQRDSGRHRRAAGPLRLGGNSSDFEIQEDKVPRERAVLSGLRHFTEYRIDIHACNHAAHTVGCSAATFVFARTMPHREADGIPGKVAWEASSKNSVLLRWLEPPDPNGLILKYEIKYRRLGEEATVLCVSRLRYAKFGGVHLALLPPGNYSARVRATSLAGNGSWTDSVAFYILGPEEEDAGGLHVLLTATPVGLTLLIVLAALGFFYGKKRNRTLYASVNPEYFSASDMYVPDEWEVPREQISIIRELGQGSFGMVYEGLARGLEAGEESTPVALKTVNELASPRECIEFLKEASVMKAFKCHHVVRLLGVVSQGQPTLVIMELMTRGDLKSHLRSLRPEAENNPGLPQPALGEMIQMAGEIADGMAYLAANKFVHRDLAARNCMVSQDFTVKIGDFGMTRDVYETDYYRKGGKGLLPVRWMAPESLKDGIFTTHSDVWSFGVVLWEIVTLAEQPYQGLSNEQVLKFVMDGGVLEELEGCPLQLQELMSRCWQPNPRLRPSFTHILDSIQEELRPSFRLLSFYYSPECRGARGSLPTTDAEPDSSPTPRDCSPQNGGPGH
A further assay addresses T2, EIF2AK3 (Homo sapiens, UniProt Q9NZJ5).
T2 sequence (Q9NZJ5 30-1116): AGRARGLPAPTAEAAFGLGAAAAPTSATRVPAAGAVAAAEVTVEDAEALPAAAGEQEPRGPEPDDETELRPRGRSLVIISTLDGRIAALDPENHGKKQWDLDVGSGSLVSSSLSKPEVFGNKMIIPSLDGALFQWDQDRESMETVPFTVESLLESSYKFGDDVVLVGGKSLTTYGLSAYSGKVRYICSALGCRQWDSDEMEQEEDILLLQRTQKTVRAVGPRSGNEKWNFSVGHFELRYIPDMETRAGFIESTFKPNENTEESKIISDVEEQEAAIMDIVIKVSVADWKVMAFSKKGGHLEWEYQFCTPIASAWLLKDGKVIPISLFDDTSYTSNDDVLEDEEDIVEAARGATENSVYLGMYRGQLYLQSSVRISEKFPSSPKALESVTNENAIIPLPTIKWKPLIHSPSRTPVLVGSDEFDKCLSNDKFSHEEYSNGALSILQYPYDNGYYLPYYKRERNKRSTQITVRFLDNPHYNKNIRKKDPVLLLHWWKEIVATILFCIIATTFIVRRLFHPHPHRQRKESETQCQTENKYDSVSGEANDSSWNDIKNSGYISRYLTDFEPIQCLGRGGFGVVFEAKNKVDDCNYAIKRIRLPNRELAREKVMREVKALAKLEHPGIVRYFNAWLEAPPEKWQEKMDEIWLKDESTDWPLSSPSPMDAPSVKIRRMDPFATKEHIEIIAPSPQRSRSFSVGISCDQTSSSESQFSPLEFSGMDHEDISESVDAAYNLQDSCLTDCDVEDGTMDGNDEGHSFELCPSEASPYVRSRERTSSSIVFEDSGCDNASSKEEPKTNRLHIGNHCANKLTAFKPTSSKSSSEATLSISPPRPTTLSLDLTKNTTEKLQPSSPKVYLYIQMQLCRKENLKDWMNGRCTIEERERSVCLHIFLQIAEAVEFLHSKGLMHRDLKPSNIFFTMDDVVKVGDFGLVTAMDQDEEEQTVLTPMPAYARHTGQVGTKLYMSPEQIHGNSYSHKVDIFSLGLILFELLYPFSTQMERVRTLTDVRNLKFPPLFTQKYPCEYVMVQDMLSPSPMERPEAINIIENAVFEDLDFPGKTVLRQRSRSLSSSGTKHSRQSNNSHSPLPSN
The settings on record: read-out: Remaining protein kinase activity.

Another assay has as its target T3, EPH-B4 (Homo sapiens, UniProt P54760).
T3 sequence (P54760 16-987): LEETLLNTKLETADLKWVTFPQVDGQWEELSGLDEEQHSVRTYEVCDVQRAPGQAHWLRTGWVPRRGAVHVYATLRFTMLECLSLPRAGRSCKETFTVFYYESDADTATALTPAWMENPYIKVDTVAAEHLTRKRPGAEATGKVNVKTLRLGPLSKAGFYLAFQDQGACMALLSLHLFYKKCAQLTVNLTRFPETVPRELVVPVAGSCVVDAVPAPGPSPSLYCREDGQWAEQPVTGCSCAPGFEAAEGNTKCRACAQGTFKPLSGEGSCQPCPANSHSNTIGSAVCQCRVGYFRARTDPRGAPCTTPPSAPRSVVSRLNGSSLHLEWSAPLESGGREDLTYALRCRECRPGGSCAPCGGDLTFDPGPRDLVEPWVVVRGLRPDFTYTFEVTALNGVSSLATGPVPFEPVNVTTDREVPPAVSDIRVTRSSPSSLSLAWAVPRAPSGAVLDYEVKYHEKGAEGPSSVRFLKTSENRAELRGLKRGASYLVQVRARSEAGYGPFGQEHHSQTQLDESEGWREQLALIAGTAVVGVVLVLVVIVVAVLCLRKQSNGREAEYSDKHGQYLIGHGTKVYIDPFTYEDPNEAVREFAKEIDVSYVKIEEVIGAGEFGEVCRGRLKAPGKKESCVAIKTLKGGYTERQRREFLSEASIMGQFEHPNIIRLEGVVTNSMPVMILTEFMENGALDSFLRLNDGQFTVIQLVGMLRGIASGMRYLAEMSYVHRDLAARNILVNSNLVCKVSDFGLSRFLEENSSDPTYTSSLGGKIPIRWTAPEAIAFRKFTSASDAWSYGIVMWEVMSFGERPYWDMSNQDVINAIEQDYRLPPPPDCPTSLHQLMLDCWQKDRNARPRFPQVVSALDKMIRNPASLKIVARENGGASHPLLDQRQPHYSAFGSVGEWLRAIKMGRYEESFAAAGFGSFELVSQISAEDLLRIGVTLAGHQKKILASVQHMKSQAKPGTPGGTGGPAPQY
To be noted: read-out: Remaining protein kinase activity.

Molecules are shown by their SMILES. Read-outs that look alike come from different tables or passages of the source.

Sequence of TTBK2 (Q6IQ55 whole entry): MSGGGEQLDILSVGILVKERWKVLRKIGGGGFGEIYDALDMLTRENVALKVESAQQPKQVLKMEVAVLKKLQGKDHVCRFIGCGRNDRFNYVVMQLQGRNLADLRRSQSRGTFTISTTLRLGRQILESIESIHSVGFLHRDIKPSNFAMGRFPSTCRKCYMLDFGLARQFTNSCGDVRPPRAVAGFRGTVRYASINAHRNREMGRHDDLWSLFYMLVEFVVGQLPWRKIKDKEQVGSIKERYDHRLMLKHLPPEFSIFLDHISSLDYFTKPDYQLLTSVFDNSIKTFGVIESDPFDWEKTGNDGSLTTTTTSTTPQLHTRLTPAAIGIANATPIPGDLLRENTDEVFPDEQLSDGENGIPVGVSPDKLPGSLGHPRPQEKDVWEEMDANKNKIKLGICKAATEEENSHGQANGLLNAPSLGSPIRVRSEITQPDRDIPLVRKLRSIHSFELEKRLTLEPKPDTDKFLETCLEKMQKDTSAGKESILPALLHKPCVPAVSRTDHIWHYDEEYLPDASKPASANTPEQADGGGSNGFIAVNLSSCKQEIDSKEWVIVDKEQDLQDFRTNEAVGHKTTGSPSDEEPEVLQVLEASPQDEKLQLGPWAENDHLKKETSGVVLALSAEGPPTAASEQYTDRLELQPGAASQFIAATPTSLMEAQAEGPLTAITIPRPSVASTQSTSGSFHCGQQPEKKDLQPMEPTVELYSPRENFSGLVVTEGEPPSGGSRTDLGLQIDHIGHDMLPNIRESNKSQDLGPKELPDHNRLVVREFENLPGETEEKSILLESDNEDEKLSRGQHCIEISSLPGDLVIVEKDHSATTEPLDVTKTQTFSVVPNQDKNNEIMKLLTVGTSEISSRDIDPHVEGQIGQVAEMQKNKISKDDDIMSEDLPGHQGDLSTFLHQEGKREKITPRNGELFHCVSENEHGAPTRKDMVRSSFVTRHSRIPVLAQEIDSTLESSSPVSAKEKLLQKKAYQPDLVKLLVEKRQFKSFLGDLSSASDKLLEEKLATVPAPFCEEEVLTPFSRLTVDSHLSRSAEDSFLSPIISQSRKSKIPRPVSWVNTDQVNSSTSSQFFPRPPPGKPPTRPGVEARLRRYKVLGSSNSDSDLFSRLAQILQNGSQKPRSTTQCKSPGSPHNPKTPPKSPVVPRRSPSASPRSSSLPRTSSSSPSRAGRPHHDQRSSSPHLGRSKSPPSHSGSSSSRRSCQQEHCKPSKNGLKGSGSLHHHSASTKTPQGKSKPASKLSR

What is called remaining activity is the signal under treatment as a percentage of the control signal. Take `COc1ccc2sc(-c3cncc(N)c3)nc2c1` [compound 1, 5-(5-Methoxybenzo[d]thiazol-2-yl)pyridin-3-amine]: the “Remaining protein kinase activity” value at TTBK2 (1 μM) is reported as 123%; on TTBK2 (100 μM), 103%. The remaining activity at 1 µM at Aurora A (Aurora A, 1 μM) was determined as 132%; on IRR (IRR, 1 μM) it was 113%; on EIF2AK3 (EIF2AK3, 1 μM) it was 122%; on EPH-B4 (EPH-B4, 1 μM), 112%. The remaining activity at 100 µM turned out to be 97% at Aurora A (Aurora A, 100 μM); 77% at IRR (IRR, 100 μM); 84% at EIF2AK3 (EIF2AK3, 100 μM); 97% at EPH-B4 (EPH-B4, 100 μM).
As to `COc1ccc2sc(-c3cncc(NC(C)=O)c3)nc2c1` [PST-001, N-(5-(5-Methoxybenzo[d]thiazol-2-yl)pyridin-3-yl)acetamide], the “Remaining protein kinase activity” value came out at 119% on TTBK2 (1 μM) and 117% on TTBK2 (100 μM). Moreover, the “Effect on Aurora A” value on Aurora A (in words) is listed as “moderately activated”. The remaining activity at 1 µM at Aurora A was determined as 133%; at IRR it was 117%; on EIF2AK3 it was 123%. The remaining activity at 100 µM came out at 136% on Aurora A, 120% on IRR, 118% at EIF2AK3 and 130% at EPH-B4.
